Results published in patent US12496294B2, “Methods for improving exercise performance and endurance thereof” (NANJING NUTRABUILDING BIO-TECH CO., LTD., priority 2020, dated 2025).

Tests used:
mice [1] = assay: SOD, CAT and MDA levels in plasma after treadmill exhaustion test (commercial kits); type: in vivo; details: for SOD level in plasma: FIG. 4; for CAT level in plasma: FIG. 5; for MDA level in plasma: FIG. 6
Protocol: (§1) Prior to the experiment, all mice were acclimatized on a treadmill by running at 15% incline and at 10 m/min for two days. After the 2-day acclimatization, 40 mice were randomly divided into four groups as followings (10 for each group): Control group (normal diet supplemented with distilled water), Dihydroberberine (high) group (normal diet supplemented with dihydroberberine 26 mg/kg daily), Dihydroberberine (medium) group: (normal diet supplemented with dihydroberberine 19.5 mg/kg daily), Dihydroberberine (low) group (normal diet supplemented with dihydroberberine 13 mg/kg daily). Each group was fed on a normal diet, other than that, three experimental groups were supplemented with dihydroberberine daily for two consecutive months, while the control group was only supplemented with distilled water at the same time. Exercise endurance of the mice was evaluated by treadmill running. At the beginning of the formal experiment, mice were placed on treadmill, running at 10 m/min for 20 minutes, and then the running speed was increased by 2 m/min every 2nd minutes. End point occurs if the mouse touched the shock grid of the treadmill three times or on the treadmill for 5 consecutive seconds without attempting to reengage the treadmill. At the end point, the running distance, highest running speed, total running time of the mice were recorded^[7].
(§2) After the treadmill exhaustion test, blood samples were collected from the mice into heparin tubes. By centrifugation at 4500 rpm for 15 minutes, plasma was separated from the top layer of the whole blood and red blood cells were also separated from the lower layer of the blood. The levels of superoxide dismutase (SOD), catalase (CAT), and malondialdehyde (MDA) in the plasma were determined using commercially available kits.

mice [2] = assay: Treadmill running exercise endurance test in mice after DHB supplementation; type: in vivo; details: DHB 13, 19.5 or 26 mg/kg daily for two consecutive months, vs control group
Protocol: as §1
FIGS. 1-3 show the exercise performance and endurance of mice after supplemented with DHB for two consecutive months.

AMPK = AMPK level in red blood cells after treadmill exhaustion test; type: in vivo, mice; details: group supplemented with high dose of DHB (26 mg/kg daily); FIG. 10
Protocol: as §1, with “At the beginning of the formal experiment, mice were placed on treadmill, running at 10 m/min for 20 minutes, and then the running speed was increased by 2 m/min every 2nd minutes. End point occurs if the mouse touched the shock grid of the treadmill three times or on the treadmill for 5 consecutive seconds without attempting to reengage the treadmill.” left out
After the treadmill exhaustion test, blood samples were collected from the mice into heparin tubes. […] The levels of superoxide dismutase (SOD), catalase (CAT), and malondialdehyde (MDA) in the plasma were determined using commercially available kits. […]

red blood cells = assay: ROS, 2,3-DPG and T-AOC in red blood cells after treadmill exhaustion test (commercial kits); type: in vivo, mice; details: for T-AOC level in the red blood cell: FIG. 9
Protocol: as §1, §2
The reactive oxygen species (ROS), 2,3-diphosphoglycerate (2,3-DPG), and total antioxidant capacity (T-AOC) in red blood cells were also determined using commercially available kits.

[3] = groups with administration of DHB (13, 19.5, 26 mg/kg daily, two months)
[4] = high-dose group (26 mg/kg daily), p<0.001

SMILES: COc1ccc2c(c1OC)CN1CCc3cc4c(cc3C1=C2)OCO4 [DHB, dihydroberberine]
- SOD level in plasma (mice [1]; groups supplemented with DHB (13, 19.5, 26 mg/kg daily, two months) vs control): higher than the control group
- CAT level in plasma (mice [1]; [3]): increased
- MDA level in plasma (mice [1]; [3]): increased
- CAT level in plasma (mice [1]; high dose group (26 mg/kg daily), p<0.05): increased significantly
- SOD level in plasma (mice [1]; high-dose DHB group (26 mg/kg daily), p<0.01): increased significantly
- MDA level in plasma (mice [1]; [4]): increased significantly
- CAT level in plasma (mice [1]; middle dose group (19.5 mg/kg daily), p<0.05): increased significantly
- running distance (mice [2]; FIG. 1): enhanced endurance and better performance
- highest running speed (mice [2]; FIG. 2): enhanced endurance and better performance
- running time (mice [2]; FIG. 3): enhanced endurance and better performance
- AMPK level in red blood cells (AMPK): decreased slightly
- ROS level in the red blood cell (red blood cells; groups supplemented with DHB (13, 19.5, 26 mg/kg daily, two months), FIG. 7): increased
- 2,3-DPG level in the red blood cell (red blood cells; groups supplemented with DHB (13, 19.5, 26 mg/kg daily, two months), FIG. 8): increased
- T-AOC level in the red blood cell (red blood cells; groups supplemented with DHB (13, 19.5, 26 mg/kg daily, two months)): increased
- T-AOC level in the red blood cell (red blood cells; [4]): increased significantly
